Source: patent US7148034B2, “Bioactive whey protein hydrolysate” (New Zealand Dairy Board, priority 2001, dated 2006)
Ends that are not written are not given here. Peptide text beside a SMILES is read from it.

Biological target: ACE-I enzyme (Homo sapiens, UniProt P12821)
Assay: ACE-I activity in vitro using FAPGG as substrate
Format: biochemical
Details: peptides purified by reverse-phase HPLC from 10 kDa UF permeate of Example 1 hydrolysate
Experimental: ACE-I activity (in vitro) in the dried product was determined using FAPGG as a substrate (Product 305–10 ex Sigma Chemical Corporation, St Louis, Mo., USA) according of the method of D W Cushman & H S Cheung (1971). ACE-I activities are expressed as the amount of material (mg/L) needed to reduce the activity of the ACE-I enzyme by 50%.

ACE-I enzyme, sequence (P12821 30-1306): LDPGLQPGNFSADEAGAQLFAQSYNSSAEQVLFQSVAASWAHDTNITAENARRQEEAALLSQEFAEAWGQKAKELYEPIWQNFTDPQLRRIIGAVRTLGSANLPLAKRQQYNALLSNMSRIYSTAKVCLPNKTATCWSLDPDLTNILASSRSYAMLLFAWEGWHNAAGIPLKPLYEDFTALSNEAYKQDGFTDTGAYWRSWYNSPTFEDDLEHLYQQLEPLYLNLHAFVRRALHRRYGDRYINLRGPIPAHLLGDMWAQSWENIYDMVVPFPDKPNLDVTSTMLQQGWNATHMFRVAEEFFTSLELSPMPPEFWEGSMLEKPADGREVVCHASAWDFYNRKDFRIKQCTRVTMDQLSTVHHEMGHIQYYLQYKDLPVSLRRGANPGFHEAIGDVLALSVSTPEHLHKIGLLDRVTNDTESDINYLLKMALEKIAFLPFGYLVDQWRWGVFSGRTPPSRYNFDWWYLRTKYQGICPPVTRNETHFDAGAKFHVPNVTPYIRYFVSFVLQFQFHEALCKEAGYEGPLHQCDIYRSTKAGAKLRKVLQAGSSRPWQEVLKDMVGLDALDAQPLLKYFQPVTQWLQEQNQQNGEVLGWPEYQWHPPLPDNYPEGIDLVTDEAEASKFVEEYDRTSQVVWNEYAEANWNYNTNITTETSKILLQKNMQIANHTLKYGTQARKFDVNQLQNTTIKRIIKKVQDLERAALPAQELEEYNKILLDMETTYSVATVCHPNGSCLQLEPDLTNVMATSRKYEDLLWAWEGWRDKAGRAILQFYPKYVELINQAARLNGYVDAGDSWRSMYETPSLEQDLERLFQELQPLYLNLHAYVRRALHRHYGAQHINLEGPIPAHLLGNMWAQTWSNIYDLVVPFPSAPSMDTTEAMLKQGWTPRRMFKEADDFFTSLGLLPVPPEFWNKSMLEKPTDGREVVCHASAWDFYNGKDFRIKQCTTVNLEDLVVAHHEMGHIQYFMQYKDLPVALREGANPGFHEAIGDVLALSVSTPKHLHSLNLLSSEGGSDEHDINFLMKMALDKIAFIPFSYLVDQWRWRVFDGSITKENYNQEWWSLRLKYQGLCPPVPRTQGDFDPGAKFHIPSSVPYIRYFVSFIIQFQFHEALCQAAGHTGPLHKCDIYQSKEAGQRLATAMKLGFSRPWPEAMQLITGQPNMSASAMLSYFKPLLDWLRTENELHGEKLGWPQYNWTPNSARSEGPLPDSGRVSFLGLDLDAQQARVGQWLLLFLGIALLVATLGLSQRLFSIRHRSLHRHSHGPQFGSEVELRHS

| Compound | IC50 |
| --- | --- |
| C[C@H](NC(=O)[C@@H](N)CO)C(=O)N1CCC[C@H]1C(=O)O [Peptide 1, SAP] (H-Ser-Ala-Pro-OH; N-terminus and C-terminus assumed) | 80.5 µM |
| CSCC[C@H](N)C(=O)N[C@@H](CCCCN)C(=O)NCC(=O)O [Peptide 2, MKG] (H-Met-Lys-Gly-OH; N-terminus and C-terminus assumed) | 68.8 µM |
| ALPMH [Peptide 3, ALPMH] | 40.5 µM |
| LIVTQ [Peptide 4, LIVTQ] | 33.2 µM |

Further lines, results first:

| IC50 | Compound |
| --- | --- |
| 5.36 µM | LKGYGGVSLPEW [Peptide 7] |
| 11 µM | VSLPEW [Peptide 5, VSLPEW] |

Test system: Spontaneously hypertensive rats (SHRs)
Assay: Acute short term effect on systolic blood pressure (tail cuff)
Format: in vivo, rat
Details: 165 mg/kg body weight, oral in jelly, p=0.0021 after 4 hours, p<0.0001 after 8 hours
Experimental: Blood pressure was measured using a tail cuff monitor and a purpose designed apparatus for measuring the blood pressure of small animals [IITC Inc, 239 Victory Blvd., Woodland Hills, Calif. 91367, USA]. Each time point was the average of 3–5 readings taken within approximately 5–10 minutes.
Spontaneously hypertensive rats (SHRs) were sourced from the Animal Resource Centre, Western Australia.
The test substances were given to each rat on a per kg body weight basis unless otherwise stated. The individual dose for each animal was incorporated into a flavoured jelly, which was readily consumed by the animals.
The three samples evaluated for short tern blood pressure response were a mildly hydrolysed whey protein concentrate (FIG. 2), a mildly hydrolysed whey protein isolate (see FIG. 3) and a synthesised peptide from. Table 1, namely MKG (SEQ ID NO: 2) (see FIG. 4). The WPC was prepared according to the methodology set out in example 1 of WO 99/65326.
Acute or short term effects of agents were determined by treating adult SHRs with the agent and then studying their blood pressure responses over the following hours. The study detects if an agent lowers blood pressure that is already elevated.

| Compound | Reduction in systolic blood pressure compared to control rats |
| --- | --- |
| CSCC[C@H](N)C(=O)N[C@@H](CCCCN)C(=O)NCC(=O)O [Peptide 2, MKG] (H-Met-Lys-Gly-OH; N-terminus and C-terminus assumed) | much greater reduction in blood pressure |
